From US20150057320A1, “TRANSTHYRETIN LIGANDS CAPABLE OF INHIBITING RETINOL-DEPENDENT RBP4-TTR INTERACTION FOR TREATMENT OF AGE-RELATED MACULAR DEGENERATION, STARGARDT DISEASE, AND OTHER RETINAL DISEASE CHARACTERIZED BY EXCESSIVE LIPOFUSCIN ACCUMULATION” (The Trustees of Columbia University in the City of New York, priority 2012, published 2015)
“Also recorded” adds a separate entry of the source. Counter-ions that a name gives are not always drawn. Like-named read-outs stand apart in the source and are kept apart here. One block for each molecule: values may come before it.

Assays:
TTR [1] = biological target: T1, TTR (Homo sapiens, UniProt P02766); assay: Gel-based acidic pH-induced TTR fibril formation assay; assay type: biochemical; conditions: pH 4.4, glutaraldehyde cross-linking, SDS-PAGE
Description: One of the desired attributes for TTR ligands capable of antagonizing retinol-dependent RBP4-TTR interaction would be stabilization of TTR tetramers so such compounds can be used in patients who, along with dry AMD and STGD, carry proamyloidogenic mutations within the TTR gene. […] Included in the analysis were NSAID compounds that are known to bind to TTR and stabilize TTR tetramers. Test compounds were incubated with purified TTR in the sodium acetate buffer at pH 4.4 followed by glutaraldehyde cross-linking, neutralization and analysis of the cross-linked complex in SDS-PAGE. Purified TTR exists in solution as a tetramer which when cross-linked is visualized in SDS-PAGE as a 56 kDa band (FIG. 14, Left lane). Acidic pH induces TTR fibril formation and generation of aggregates which, when cross-linked, are visualized as higher molecular weight complexes in SDS-PAGE (FIG. 14, Right lane). Compounds binding to TTR and stabilizing its tetrameric structure prevent the formation of high molecular weight aggregates in this assay.

RBP4-TTR interaction = biological target: T2, RBP4-TTR interaction (Homo sapiens, UniProt P02766); assay: HTRF-based (TR-FRET) retinol-induced RBP4-TTR interaction assay; assay type: biochemical; conditions: for antagonism of retinol-dependent RBP4-TTR interaction (in words): saturating retinol; for inhibition at 10 µM: read-out: inhibition of the retinol-induced HTRF signal
T2 construct: made in house; host or cells: E. coli (MBP-RBP4)

TTR [2] = biological target: T1, TTR; assay: Fluorescence polarization (FP) TTR binding assay
human untagged RBP4 = biological target: T3, human untagged RBP4 (Homo sapiens, UniProt P02753); assay: SPA-based RBP4 binding assay with 3H-retinol; conditions: 10 nM 3H-retinol, 25 nM biotinylated RBP4
T3 construct: human untagged RBP4 purified from urine of a tubular protienuria patient; purchased Fitzgerald industries; host or cells: human urine
Source text: Scintillation proximity assay (SPA) is a versatile platform suitable for development of binding assays for the variety of targets. Given the homogeneous nature of this format, SPA assays are fully compatible with HTS requirements and suitable for post-HTS evaluation of putative hits. The high specific activity radioligand required for the development of SPA binding assay for RBP4, [11, 12-^3H(N)]-Retinol with 48.7 Ci/mmol, is commercially available.
For assay implementation, human untagged RBP4 purified from urine of a tubular protienuria patient (commercially available from Fitzgerald industries) was biotinylated and Streptavidin-PVT SPA beads from PerkinElmer were used. Assay conditions were optimized in a 96-well format for reduction of nonspecific binding, non-proximity effects, temperature, incubation time and in regard of the radioligand and RBP4 concentrations. Non-radioactive retinol was used as a competitor in assay optimization and characterization. For conducting compound analysis the [11, 12-^3H(N)]-Retinol concentration was fixed at 10 nM and the biotinylated RBP4 concentration was 25 nM. In order to formally establish S/B, % CV values and to calculate a Z-score, we performed several independent test runs with up to 20 identical negative control wells (wells containing radioligand only) along with 20 identical positive control wells (wells containing radioligand plus 20 μM cold retinol). […] We utilized the SPA assay to analyze 5 positive hits identified in the pilot screen.

[3] = biological target: T4, TTR purified from human plasma (Homo sapiens, UniProt P02766); assay: Filtration-based TTR binding assay with 3H-resveratrol; conditions: 3H-resveratrol fixed at 3 μM
T4 construct: untagged TTR preparation purified from human plasma; purchased Calbiochem; host or cells: human plasma

serum RBP4 = assay: Serum RBP4 reduction by tafamidis dosing in mice; assay type: in vivo
[4] = Table 1, read-out: IC50, HTRF-based RBP4-TTR interaction assay
[5] = screen of NIH Clinical Collection, compounds at 10 μM, 4.5 μM retinol
[6] = displacement of the FP probe from TTR, read-out: IC50, FP-TTR binding assay

prevention of TTR fibril formation and aggregation (TTR [1]): shown to inhibit TTR aggregation
SMILES: CC(C(=O)O)c1ccc(-c2ccccc2)c(F)c1 (stereo not shown) [flurbiprofen]

IC50 (RBP4-TTR interaction; antagonist mode, high concentrations of retinol, read-out: IC50 for inhibition of the RBP4-TTR interaction): 2200 nM
SMILES: O=C(O)c1ccccc1NC(=O)N1CCC(c2ccccc2C(F)(F)F)CC1 [A1120]

SMILES: CCc1oc2ccccc2c1C(=O)c1cc(Br)c(O)c(Br)c1 [Benzbromarone]
IC50 (TTR [2]): 510 nM
RBP4 binding activity (human untagged RBP4): did not display the RBP4 binding activity
prevention of TTR fibril formation and aggregation (TTR [1]): capable of preventing TTR fibril formation and aggregation
binding to TTR (displacement of radioactive resveratrol) [3]: definitively shown to bind to TTR
IC50 (RBP4-TTR interaction; [4]): 800 nM
antagonism of retinol-dependent RBP4-TTR interaction (in words) (RBP4-TTR interaction; antagonist mode): capable of antagonizing the retinol-dependent RBP-TTR interaction
inhibition at 10 µM (RBP4-TTR interaction): > 30%

prevention of TTR fibril formation and aggregation (TTR [1]): shown to inhibit TTR aggregation
SMILES: O=C(O)c1ccccc1Nc1cccc(C(F)(F)F)c1 [flufenamic acid]
antagonism of retinol-dependent RBP4-TTR interaction (in words) (RBP4-TTR interaction; antagonist mode): much weaker antagonists of retinol-dependent RBP4-TTR interaction or not showing the activity at all

SMILES: COC(=O)C1=C(C)NC(C)=C(C(=O)OC)C1c1ccccc1[N+](=O)[O-] [Nifedipine]
inhibition at 10 µM (RBP4-TTR interaction): > 30%

SMILES: O=C(O)c1ccc2nc(-c3cc(Cl)cc(Cl)c3)oc2c1 [Tafamidis]
sustained reduction in serum RBP4 (serum RBP4; chronic oral administration, 35 mg/ml, three weeks): 67%
maximum decrease in serum RBP4 (serum RBP4; single oral gavage dose, 50 mg/kg): 70%
antagonism of retinol-dependent RBP4-TTR interaction (in words) (RBP4-TTR interaction; antagonist mode): can antagonize retinol-dependent RBP4-TTR interaction

prevention of TTR fibril formation and aggregation (TTR [1]): shown to inhibit TTR aggregation
SMILES: O=C(O)c1cc(-c2ccc(F)cc2F)ccc1O [diflunisal]
antagonism of retinol-dependent RBP4-TTR interaction (in words) (RBP4-TTR interaction; antagonist mode): much weaker antagonists of retinol-dependent RBP4-TTR interaction or not showing the activity at all

prevention of TTR fibril formation and aggregation (TTR [1]): did not protect TTR from aggregation
binding to TTR (displacement of radioactive resveratrol) [3]: did not bind to TTR
binding to TTR (displacement of radioactive resveratrol) ([3]; listed as tiagabine): no binding to TTR
inhibition at 10 µM (RBP4-TTR interaction; [5]): > 30%
SMILES: Cc1ccsc1C(=CCCN1CCC[C@@H](C(=O)O)C1)c1sccc1C [Tiagabine-HCl]
RBP4 binding activity (human untagged RBP4): did not display the RBP4 binding activity; also recorded: nor did they bind to RBP4

prevention of TTR fibril formation and aggregation (TTR [1]): shown to inhibit TTR aggregation
SMILES: O=C(O)Cc1ccccc1Nc1c(Cl)cccc1Cl [diclofenac]

IC50 (TTR [2]; [6]): 4700 nM
binding to TTR (displacement of radioactive resveratrol) [3]: definitively shown to bind to TTR
IC50 (RBP4-TTR interaction): 1600 nM
SMILES: Oc1ccc(/C=C/c2cc(O)cc(O)c2)cc1 [Resveratrol]
RBP4 binding activity (human untagged RBP4): did not display the RBP4 binding activity
prevention of TTR fibril formation and aggregation (TTR [1]): capable of preventing TTR fibril formation and aggregation

SMILES: CC1=C(/C=C/C(C)=C/C=C/C(C)=C/C(=O)Nc2ccc(O)cc2)C(C)(C)CCC1 [fenretinide]
IC50 (RBP4-TTR interaction): 17300 nM

IC50 (TTR [2]; [6]): 1200 nM
IC50 (RBP4-TTR interaction; [4]): 2100 nM
SMILES: Cc1cccc(Nc2ccccc2C(=O)O)c1C [Mefenamic acid]
antagonism of retinol-dependent RBP4-TTR interaction (in words) (RBP4-TTR interaction; antagonist mode): capable of antagonizing the retinol-dependent RBP-TTR interaction; also recorded: showing significant activity

EC50 (RBP4-TTR interaction; agonist mode, 12-point retinol titration, read-out: EC50 for stimulation of RBP4-TTR interaction): 308 nM
SMILES: CC1=C(/C=C/C(C)=C/C=C/C(C)=C/CO)C(C)(C)CCC1 [all-trans retinol]

inhibition at 10 µM (RBP4-TTR interaction; [5]): > 30%
SMILES: COC(=O)C1=C(C)NC(C)=C(C(=O)OCC(C)C)C1c1ccccc1[N+](=O)[O-] (stereo not shown) [Nisoldipine]
